In experiment [1] the target is Aspergillus niger β-xylosidase according to Rodionova et al. (1983). As to conditions: β-xyl (Rodionova), comparison enzyme; read-out: inhibition Ki (mM xylosc); cited from earlier work.
The target of experiment [2] is T1, Aspergillus niger β-xylosidase I (X-I, xylD), SEQ ID NO. 1 (Aspergillus niger, UniProt O00089).
T1 construct: Mono Q peak I
Briefly: Inhibition of β-xylosidase X-I by xylose. Format: biochemical. Conditions: β-xylosidase X-I of the invention; read-out: inhibition Ki (mM xylosc). How it is done:
(§1) Table A summarises the specificity pattern of two β-xylosidases X-I and X-II of the invention--presumably differing only in their glycosylation pattern, not in their amino acid sequence--and of the β-xylosidase reported by Rodionova et al., and their inhibition by xylose.
(§2) DEAE-Sephadex A-50 was equilibrated in 50 mM sodium acetate buffer pH 5.0 and was added to the culture filtrate. After 30-60 minutes of stirring at 4° C., the DEAE-Sephadex together with the culture filtrate were passed through a funnel with a glass filter holder and the DEAE-Sephadex A-50 was transferred to a column. […] Fractions containing β-xylosidase activity, as was detected using the chromogenic substrate 4-methylumbelliferyl-β-D-xyloside (detects β-xylosidases and endo-xylanases) (Sigma #M7008), were pooled and desalted by dialysis against Millipore water and subsequently dialysed against 20 mM piperazine-HCl buffer pH 5.0. […] The specific activity of both β-xylosidase I and II towards the artificial substrate PNP-X was determined as described by Rodionova et al., 1983, to be respectively 60.2 and 60.9 U/mg protein. In addition the activity against PNP-β-D-glucopyranoside (Sigma #N7006) was determined to be 0.2 and 0.3 U/mg, against PNP-β-D-galactopyranoside (Sigma #N1252) 0.0 and 0.0 U/mg and against PNP-β-L-arabinofuranoside(Sigma #N3641) 2.8 and 3.4 U/mg respectively for β-xylosidase I and II.

In experiment [3] the target is T2, Aspergillus niger β-xylosidase II (X-II, xylD), SEQ ID NO. 1 (Aspergillus niger, UniProt O00089).
T2 construct: Mono Q peak II
Kind of experiment: Inhibition of β-xylosidase X-II by xylose. Format: biochemical. Conditions: β-xylosidase X-II of the invention; read-out: inhibition Ki (mM xylosc). The method, then:
as §1, §2

T2 sequence (O00089 27-804): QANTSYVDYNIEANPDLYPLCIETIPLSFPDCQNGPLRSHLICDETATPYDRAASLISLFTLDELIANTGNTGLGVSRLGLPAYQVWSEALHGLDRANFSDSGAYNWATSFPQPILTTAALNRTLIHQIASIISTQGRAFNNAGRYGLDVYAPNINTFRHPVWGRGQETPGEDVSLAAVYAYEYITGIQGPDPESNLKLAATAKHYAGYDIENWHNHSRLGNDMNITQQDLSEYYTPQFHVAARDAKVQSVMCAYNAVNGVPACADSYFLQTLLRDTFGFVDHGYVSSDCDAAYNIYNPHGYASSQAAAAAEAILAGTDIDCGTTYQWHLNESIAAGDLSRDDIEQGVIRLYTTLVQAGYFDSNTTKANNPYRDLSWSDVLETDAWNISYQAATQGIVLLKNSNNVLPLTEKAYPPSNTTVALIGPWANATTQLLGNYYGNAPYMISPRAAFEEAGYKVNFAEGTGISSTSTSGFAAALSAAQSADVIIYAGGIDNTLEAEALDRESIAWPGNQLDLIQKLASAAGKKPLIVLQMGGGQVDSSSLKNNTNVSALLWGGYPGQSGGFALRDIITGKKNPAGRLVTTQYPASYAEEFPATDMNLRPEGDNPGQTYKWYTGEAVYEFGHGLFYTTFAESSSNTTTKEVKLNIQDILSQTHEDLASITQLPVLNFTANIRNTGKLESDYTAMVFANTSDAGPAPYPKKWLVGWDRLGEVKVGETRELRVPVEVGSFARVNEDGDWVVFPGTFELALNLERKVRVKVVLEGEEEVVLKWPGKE
T1 sequence (O00089 27-804): as above

A word on the Ki: it is a measure of affinity in units of concentration, obtained from inhibition or displacement. xylose: the results for the Ki in experiment [1], in experiment [2] and in experiment [3] were 2.9 mM, 9.8 mM and 13.2 mM, respectively.

The values are drawn from US6300112A, “β-xylosidase, nucleotide sequence encoding it, and use thereof” (Danisco Ingredients A.S (Danisco A/S), priority 1995, dated 2001).
